As a reminder, the IC50 is the concentration that inhibits the measured activity by half. What is called solubility (thermodynamic) is the concentration in solution at equilibrium with solid.

Results on 50 compounds are retold here after ChEMBL document CHEMBL1629525, “Synthesis and characterization of 1,3-dihydro-benzo[b][1,4]diazepin-2-one derivatives: Part 4. In vivo active potent and selective non-competitive metabotropic glutamate receptor 2/3 antagonists” (Bioorg Med Chem Lett, 2010).

Data set [1] concerns the target T1, Metabotropic glutamate receptor 2 (Rattus norvegicus, UniProt P31421). Briefly: Antagonist activity at recombinant rat mGluR2 expressed in forskolin-stimulated CHO cells assessed as inhibition of (1S,3R)-ACPD induced cAMP production. Type of data set: functional, cell-based. On the technique in general: Cyclic AMP is a second messenger, typically raised through Gs and lowered through Gi signalling.

The target of data set [2] is T1, Metabotropic glutamate receptor 2. Briefly: Partial displacement of [3H]LY354740 from recombinant rat mGluR2.
Data set [3] concerns the target Metabotropic glutamate receptor 3 (Rattus norvegicus, UniProt P31422). Nature of the data set: Antagonist activity at rat mGluR3 receptor expressed in CHO cells assessed as inhibition of GIRK current. Type of data set: functional, cell-based.
The target in data set [4] is T1, Metabotropic glutamate receptor 2. Nature of the data set: Antagonist activity at rat mGluR2 receptor expressed in CHO cells assessed as inhibition of GIRK current. Type of data set: functional, cell-based.
Data set [5] addresses Metabotropic glutamate receptor 2 (Homo sapiens, UniProt Q14416). Nature of the data set: Antagonist activity at human mGluR2 receptor expressed in CHO cells assessed as inhibition of GIRK current. Type of data set: functional, cell-based.
In a further data set the target is Cytochrome P450 3A4 (Homo sapiens, UniProt P08684). Nature of the data set: Inhibition of CYP3A4. Type of data set: ADME.
Sequence of Cytochrome P450 3A4 (P08684 whole entry): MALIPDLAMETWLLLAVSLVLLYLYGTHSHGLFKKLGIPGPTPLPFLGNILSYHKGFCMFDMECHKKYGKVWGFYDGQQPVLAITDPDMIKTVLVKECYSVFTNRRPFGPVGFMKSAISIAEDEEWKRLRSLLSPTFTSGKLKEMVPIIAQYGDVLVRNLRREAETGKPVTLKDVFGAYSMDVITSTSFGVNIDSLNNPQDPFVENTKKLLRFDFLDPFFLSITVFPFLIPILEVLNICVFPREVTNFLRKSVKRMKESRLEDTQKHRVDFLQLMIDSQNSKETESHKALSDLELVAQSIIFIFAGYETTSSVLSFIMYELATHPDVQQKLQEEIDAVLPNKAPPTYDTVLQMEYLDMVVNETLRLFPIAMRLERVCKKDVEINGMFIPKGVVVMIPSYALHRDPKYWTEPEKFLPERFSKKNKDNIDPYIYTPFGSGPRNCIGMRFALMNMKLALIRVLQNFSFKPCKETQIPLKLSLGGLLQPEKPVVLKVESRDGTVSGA
The next data set relates to Liver microsomes. Nature of the data set: Clearance in rat liver microsomes. Type of data set: ADME, Microsome. (In general: Liver microsomes are a subcellular fraction often used to study metabolism.)
Data set [6] in a line: Thermodynamic solubility of the compound at pH 3. Type of data set: physicochemical. The following applies: buffer.

Converted amounts (≈) assume the structure as drawn.

Sequence of Metabotropic glutamate receptor 3 (P31422 whole entry): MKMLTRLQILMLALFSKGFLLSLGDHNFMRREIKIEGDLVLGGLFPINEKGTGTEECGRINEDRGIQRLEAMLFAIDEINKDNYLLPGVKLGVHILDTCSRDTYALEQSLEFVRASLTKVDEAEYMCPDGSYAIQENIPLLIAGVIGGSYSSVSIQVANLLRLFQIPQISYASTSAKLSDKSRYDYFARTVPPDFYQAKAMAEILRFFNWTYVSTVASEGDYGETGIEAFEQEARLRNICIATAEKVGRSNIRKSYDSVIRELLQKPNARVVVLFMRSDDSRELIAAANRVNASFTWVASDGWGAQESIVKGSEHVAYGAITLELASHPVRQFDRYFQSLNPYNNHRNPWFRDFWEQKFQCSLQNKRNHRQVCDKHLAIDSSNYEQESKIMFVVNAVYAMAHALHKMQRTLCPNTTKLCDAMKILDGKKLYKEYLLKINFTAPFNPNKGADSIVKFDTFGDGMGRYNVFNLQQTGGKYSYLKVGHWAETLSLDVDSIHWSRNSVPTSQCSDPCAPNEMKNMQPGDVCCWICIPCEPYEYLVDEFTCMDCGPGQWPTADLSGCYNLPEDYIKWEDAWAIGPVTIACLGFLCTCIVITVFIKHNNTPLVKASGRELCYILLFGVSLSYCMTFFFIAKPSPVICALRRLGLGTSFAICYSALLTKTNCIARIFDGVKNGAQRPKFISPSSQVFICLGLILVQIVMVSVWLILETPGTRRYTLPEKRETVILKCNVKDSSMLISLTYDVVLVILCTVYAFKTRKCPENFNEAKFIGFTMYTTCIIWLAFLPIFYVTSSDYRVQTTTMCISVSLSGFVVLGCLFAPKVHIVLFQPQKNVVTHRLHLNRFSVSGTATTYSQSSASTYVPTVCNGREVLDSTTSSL
T1 sequence (P31421 whole entry): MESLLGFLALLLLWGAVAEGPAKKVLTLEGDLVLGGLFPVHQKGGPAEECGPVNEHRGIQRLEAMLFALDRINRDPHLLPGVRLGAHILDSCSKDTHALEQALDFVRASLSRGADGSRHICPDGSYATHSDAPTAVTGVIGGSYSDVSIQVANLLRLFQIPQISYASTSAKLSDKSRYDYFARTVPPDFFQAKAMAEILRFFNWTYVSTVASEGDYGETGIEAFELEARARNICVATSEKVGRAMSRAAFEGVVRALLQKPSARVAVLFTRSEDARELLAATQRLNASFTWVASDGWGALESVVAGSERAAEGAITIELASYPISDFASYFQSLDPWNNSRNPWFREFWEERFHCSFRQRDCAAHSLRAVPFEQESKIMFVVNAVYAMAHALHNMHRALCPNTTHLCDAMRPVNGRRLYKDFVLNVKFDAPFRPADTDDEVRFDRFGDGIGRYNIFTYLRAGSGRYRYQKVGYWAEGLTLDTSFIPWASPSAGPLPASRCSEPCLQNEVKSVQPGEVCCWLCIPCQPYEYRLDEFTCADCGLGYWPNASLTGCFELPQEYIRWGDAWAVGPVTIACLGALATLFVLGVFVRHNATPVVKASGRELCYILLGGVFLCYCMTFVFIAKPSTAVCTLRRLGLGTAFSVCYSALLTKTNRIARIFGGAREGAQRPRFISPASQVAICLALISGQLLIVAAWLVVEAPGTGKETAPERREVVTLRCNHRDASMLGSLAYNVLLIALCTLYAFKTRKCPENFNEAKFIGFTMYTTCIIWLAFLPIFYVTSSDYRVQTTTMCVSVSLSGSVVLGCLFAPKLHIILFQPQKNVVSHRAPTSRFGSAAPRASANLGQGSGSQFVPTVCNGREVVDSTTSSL
Sequence of Metabotropic glutamate receptor 2 (Homo sapiens, UniProt Q14416) (Q14416 whole entry): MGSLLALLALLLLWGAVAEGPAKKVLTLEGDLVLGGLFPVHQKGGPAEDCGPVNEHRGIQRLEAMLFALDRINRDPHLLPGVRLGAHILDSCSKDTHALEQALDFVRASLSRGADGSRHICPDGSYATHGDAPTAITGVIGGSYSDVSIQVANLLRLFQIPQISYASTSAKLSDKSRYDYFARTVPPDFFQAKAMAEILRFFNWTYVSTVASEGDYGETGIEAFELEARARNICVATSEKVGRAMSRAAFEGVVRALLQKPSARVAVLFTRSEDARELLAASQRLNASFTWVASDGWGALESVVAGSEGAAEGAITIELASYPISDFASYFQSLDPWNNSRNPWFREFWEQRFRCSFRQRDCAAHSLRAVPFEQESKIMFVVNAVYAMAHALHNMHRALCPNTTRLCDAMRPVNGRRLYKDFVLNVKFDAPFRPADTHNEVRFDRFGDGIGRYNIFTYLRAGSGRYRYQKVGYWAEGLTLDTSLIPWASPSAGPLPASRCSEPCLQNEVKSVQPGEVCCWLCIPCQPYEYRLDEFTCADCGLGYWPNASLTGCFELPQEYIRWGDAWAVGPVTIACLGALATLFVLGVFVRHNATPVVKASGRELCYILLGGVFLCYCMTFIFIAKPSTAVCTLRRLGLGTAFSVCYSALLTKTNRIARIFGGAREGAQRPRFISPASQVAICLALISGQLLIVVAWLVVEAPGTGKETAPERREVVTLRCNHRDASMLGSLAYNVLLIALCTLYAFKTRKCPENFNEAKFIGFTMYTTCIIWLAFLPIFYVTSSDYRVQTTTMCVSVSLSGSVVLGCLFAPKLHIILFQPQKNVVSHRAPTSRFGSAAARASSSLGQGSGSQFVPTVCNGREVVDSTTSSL

Consider `Cc1cc2c(cc1C(F)(F)F)NC(=O)CC(c1cccc(-c3ccncn3)c1)=N2`, for which the IC50 in data set [1] amounted to 50 nM; in data set [2], 6 nM.
Turning to `CCOc1cc2c(cc1C(F)(F)F)NC(=O)CC(c1cccc(-c3ccncc3)c1)=N2`, the IC50 in data set [3] amounted to 6 nM; in data set [4], 8 nM; in data set [1], 10 nM; in data set [5], 38 nM; in data set [2], 4 nM.
As for `Cc1cc2c(cc1C(F)(F)F)NC(=O)CC(c1cccc(-c3ccnc(CN(C)C)c3)c1)=N2`, the half-inhibitory concentration (IC50) in data set [2] was 274 nM.
Turning to `Cc1cc2c(cc1C(F)(F)F)NC(=O)CC(c1cccc(-c3ccc(C4CC4)nc3)c1)=N2`, the IC50 in data set [1] amounted to 20 nM; in data set [2], 6 nM.
Consider `Cc1cc(-c2cccc(C3=Nc4cc(C)c(C(F)(F)F)cc4NC(=O)C3)c2)ccn1`, for which the IC50 on Cytochrome P450 3A4 turned out to be 1900 nM; in data set [3], 14 nM; in data set [4], 13 nM; in data set [1], 4 nM; in data set [5], 41 nM; in data set [2] it was 4 nM. This compound returned a CL in the data set on Liver microsomes of 0.8 mL/kg/min. Further, the solubility (thermodynamic) in data set [6] came to 45 µg/mL (≈ 110 µM).
Consider `Cc1cc(-c2cccc(C3=Nc4cc(Cl)c(Cl)cc4NC(=O)C3)c2)ccn1`, for which the IC50 amounted to 30 nM in data set [3], 2 nM in data set [1], 7 nM in data set [5] and 4 nM in data set [2].
Turning to `O=C1CC(c2cccc(-n3ccnn3)c2)=Nc2ccc(-c3ccccc3F)cc2N1`, the IC50 is 33 nM in data set [3], 11 nM in data set [4], 27 nM in data set [1] and 12 nM in data set [2].
Turning to `Cc1cc2c(cc1C(F)(F)F)NC(=O)CC(c1cccc(-c3ccnc(C(F)(F)F)c3)c1)=N2`, the IC50 in data set [2] was 66 nM.
Take `Cc1cc2c(cc1C(F)(F)F)NC(=O)CC(c1cccc(-c3ccnc(Cc4ccccc4)c3)c1)=N2`: the figures for the IC50 in data set [1] and in data set [2] were 5 nM and 16 nM, respectively.
For the compound `Cc1cc2c(cc1C(F)(F)F)NC(=O)CC(c1cccc(-c3ccc(N(C)C)nc3)c1)=N2`, in data set [2], the IC50 worked out at 86 nM.
For `Cc1cc2c(cc1C(F)(F)F)NC(=O)CC(c1cccc(-c3cnccn3)c1)=N2`, the figures for the IC50 in data set [1] and in data set [2] were 16 nM and 20 nM, respectively.
Regarding `Cc1cc2c(cc1C(F)(F)F)NC(=O)CC(c1cccc(-c3ccnc(CO)c3)c1)=N2`, the IC50 in data set [1] amounted to 18 nM; in data set [2] it was 13 nM.
On to `Cc1cc2c(cc1C(F)(F)F)NC(=O)CC(c1cccc(-c3ccnc(-c4ccccc4)c3)c1)=N2`, for which, in data set [2], the IC50 stood at 118 nM.
With `CCc1cc(-c2cccc(C3=Nc4cc(C)c(C(F)(F)F)cc4NC(=O)C3)c2)cc(C)n1`, the IC50 in data set [1] was 4 nM; in data set [2], 2 nM.
In the case of `Cc1cc2c(cc1C(F)(F)F)NC(=O)CC(c1cccc(-n3ccnc3)c1)=N2`, on Cytochrome P450 3A4, the IC50 is below 100 nM.
Consider `Cc1cc2c(cc1C(F)(F)F)NC(=O)CC(c1cccc(-c3ccnnc3)c1)=N2`, for which the figures for the IC50 in data set [1] and in data set [2] were 72 nM and 18 nM, respectively.
Taken in the same sequence, the figures for `CCc1ccc(-c2cccc(C3=Nc4cc(C)c(C(F)(F)F)cc4NC(=O)C3)c2)cn1` were 18 nM and 9 nM.
Taken in the same sequence, the figures for `Cc1cc2c(cc1C(F)(F)F)NC(=O)CC(c1cccc(-c3ccnc(C4CC4)c3)c1)=N2` were 6 nM and 10 nM.
As to `Cc1cc2c(cc1C(F)(F)F)NC(=O)CC(c1cccc(-c3cncnc3)c1)=N2`, the figures for the IC50 in data set [1] and in data set [2] were 48 nM and 23 nM, respectively.
`CCOc1cc2c(cc1C(F)(F)F)NC(=O)CC(c1cccc(-c3ccnc(C)c3)c1)=N2`: the IC50 in data set [3] amounted to 3 nM; in data set [1], 8 nM; in data set [5], 15 nM; in data set [2] it was 6 nM.
Take `Cc1cc2c(cc1C(F)(F)F)NC(=O)CC(c1cccc(-c3cccnn3)c1)=N2`: the IC50 in data set [2] came to 128 nM.
For `Cc1cc(-c2cccc(C3=Nc4ccc(C(F)(F)F)cc4NC(=O)C3)c2)ccn1`, the IC50 in data set [3] is 17 nM; in data set [1], 36 nM; in data set [5], 25 nM; in data set [2] it was 18 nM.
Consider `Cc1ccc(-c2cccc(C3=Nc4cc(C)c(C(F)(F)F)cc4NC(=O)C3)c2)cn1`, for which the IC50 in data set [1] was 5 nM; in data set [2], 13 nM.
Consider `Cc1cc2c(cc1C(F)(F)F)NC(=O)CC(c1cccc(-c3ccc(N)nc3)c1)=N2`, for which the IC50 in data set [1] was 160 nM; in data set [2] it was 14 nM.
Regarding `Cc1cc2c(cc1C(F)(F)F)NC(=O)CC(c1cccc(-c3ccnc(C(C)C)c3)c1)=N2`, the results for the IC50 in data set [1] and in data set [2] were 10 nM and 4 nM, respectively.
The corresponding values for `Cn1nccc1-c1cccc(C2=Nc3ccc(C(F)(F)F)cc3NC(=O)C2)c1` are 190 nM and 39 nM.
The corresponding values for `Cc1cc(-c2cccc(C3=Nc4cc(C)c(C(F)(F)F)cc4NC(=O)C3)c2)cc(CO)n1` are 15 nM and 14 nM.
On to `COc1ccc(-c2cccc(C3=Nc4cc(C)c(C(F)(F)F)cc4NC(=O)C3)c2)cn1`, for which the IC50 was 10 nM in data set [1] and 5 nM in data set [2].
With `Cc1cc2c(cc1C(F)(F)F)NC(=O)CC(c1cccc(-n3cncn3)c1)=N2`, the concentration for half-maximal inhibition (IC50) turned out to be 75 nM in data set [1] and 8 nM in data set [2].
Taken in the same sequence, the figures for `COCc1cc(-c2cccc(C3=Nc4cc(C)c(C(F)(F)F)cc4NC(=O)C3)c2)ccn1` were 6 nM and 13 nM.
The corresponding values for `Cc1cc2c(cc1C(F)(F)F)NC(=O)CC(c1cccc(-c3ccc(C(C)C)nc3)c1)=N2` are 10 nM and 10 nM.
For the compound `Cc1ccc2c(c1)NC(=O)CC(c1ccccc1)=N2`, in data set [2], the IC50 is 6400 nM.
Turning to `COCc1cc(-c2cccc(C3=Nc4cc(C)c(C(F)(F)F)cc4NC(=O)C3)c2)cc(C)n1`, the results for the IC50 in data set [1] and in data set [2] were 5 nM and 8 nM, respectively.
In the case of `Cc1cc2c(cc1C(F)(F)F)NC(=O)CC(c1cccc(-c3ccnc(C(C)(C)O)c3)c1)=N2`, the values for the IC50 in data set [1] and in data set [2] were 14 nM and 40 nM, respectively.
Regarding `O=C1CC(c2cccc(-c3ccncc3)c2)=Nc2ccc(C(F)(F)F)cc2N1`, the IC50 was 29 nM in data set [3]; 101 nM in data set [4]; 26 nM in data set [1]; 52 nM in data set [5]; 10 nM in data set [2].
`Cc1cc2c(cc1C(F)(F)F)NC(=O)CC(c1cccc(-c3ccnc(C4CCCC4)c3)c1)=N2`: the IC50 was 7 nM in data set [1] and 10 nM in data set [2].
Take `Cc1cc(-c2cccc(C3=Nc4cc(C)c(C(F)(F)F)cc4NC(=O)C3)c2)cc(C2CC2)n1`: the IC50 in data set [1] came to 4 nM; in data set [2], 2 nM.
Take `Cc1cc(-c2cccc(C3=Nc4cc(C)c(C(F)(F)F)cc4NC(=O)C3)c2)on1`: the IC50 in data set [1] was determined as 9 nM; in data set [2], 5 nM.
`Cc1cc2c(cc1C(F)(F)F)NC(=O)CC(c1cccc(-c3ccccn3)c1)=N2`: the IC50 is 30 nM in data set [1] and 26 nM in data set [2].
`COc1cc(-c2cccc(C3=Nc4cc(C)c(C(F)(F)F)cc4NC(=O)C3)c2)ccn1`: the IC50 in data set [1] stood at 16 nM; in data set [2], 13 nM.
`Cc1cc2c(cc1C(F)(F)F)NC(=O)CC(c1cccc(-c3ccnc(N4CCOCC4)c3)c1)=N2`: the IC50 in data set [2] was 29 nM.
Regarding `Cc1cc(-c2cccc(C3=Nc4cc(C(F)(F)F)c(C(F)(F)F)cc4NC(=O)C3)c2)cc(C)n1`, the IC50 in data set [1] and in data set [2] was 7 nM throughout.
Regarding `Cc1cc2c(cc1C(F)(F)F)NC(=O)CC(c1cccc(-c3cccnc3)c1)=N2`, the IC50 on Cytochrome P450 3A4 is 1800 nM; in data set [1] it was 3 nM; in data set [2], 2 nM.
Turning to `Cc1cc2c(cc1C(F)(F)F)NC(=O)CC(c1cccc(-c3ccnc(-n4cccc4)c3)c1)=N2`, the IC50 in data set [2] was 59 nM.
With `Cc1cc2c(cc1C(F)(F)F)NC(=O)CC(c1cccc(-c3ccnc(C#N)c3)c1)=N2`, the IC50 in data set [1] came out at 18 nM; in data set [2] it was 12 nM.
Consider `O=C1CC(c2cccc(-c3ccncc3)c2)=Nc2ccc(Cl)cc2N1`, for which the IC50 in data set [1] worked out at 3 nM; in data set [5], 10 nM; in data set [2], 8 nM.
For the compound `Cc1cc2c(cc1C(F)(F)F)NC(=O)CC(c1cccc(-n3nncc3CO)c1)=N2`, in data set [2], the IC50 turned out to be 120 nM.
With `CCc1cc(-c2cccc(C3=Nc4cc(C)c(C(F)(F)F)cc4NC(=O)C3)c2)ccn1`, the IC50 in data set [1] came to 5 nM; in data set [2] it was 8 nM.
For the compound `Cc1nc(-c2cccc(C3=Nc4ccc(C(F)(F)F)cc4NC(=O)C3)c2)co1`, the IC50 in data set [2] is 350 nM.
Consider `Cc1cc2c(cc1C(F)(F)F)NC(=O)CC(c1cccc(-c3ccncc3)c1)=N2`, for which the IC50 against Cytochrome P450 3A4 was 200 nM; in data set [1], 11 nM; in data set [2], 4 nM. Further, the solubility (thermodynamic) in data set [6] came to 5 µg/mL (≈ 12.6 µM).
